# Measurements from PMC7822819, “Discovery of a new class of integrin antibodies for fibrosis” (Scientific Reports, 2021).
# Values joined by “and” are separate entries in the source; they are usually repeats but may differ in a detail not shown here. Identical values can stand only once.
# Assays:
# [1] = test system: bleomycin-induced lung fibrosis; test: Bleomycin-induced lung fibrosis mouse model; type: in vivo; conditions: BLM mice, Nintedanib 60 mpk po qd
# Procedure: Adult male C57BL/6 mice (Taconic, Rensselaer, NY) were housed in a temperature and humidity-controlled facility with a 12 h light: 12-h dark cycle. Animals had ad libitum access to food (Purina Rodent Chow 5053, LabDiet, St. Louis, MO) and water. All procedures utilizing experimental animals were conducted in accordance with the Guide for the Care and Use of Laboratory Animals, and experimental procedures were reviewed and approved by the Institutional Animal Care and Use Committee at MRL, Kenilworth, NJ. For osmotic minipump implantation, TFA salt of MK-0429 was formulated in 50% DMSO/50% H2O at a concentration of 416 mg/mL. MK-0429 or vehicle solution were filled in minipumps (Alzet, # 1007D, flow rate 0.5 μL/h). Minipumps were placed in mice subcutaneously in a pocket on the back between the shoulder blades. A small incision was made and a subcutaneous pocket formed by blunt dissection. A sterile minipump was inserted into the subcutaneous pocket. The incision was closed with staples or non-absorbable suture or absorbable (subcuticular) suture. The minipumps were used for continuous drug delivery for 2 weeks. Mice at 12 ~ 13 weeks of age were randomized to 5 groups: saline, bleomycin instillation with vehicle (osmotic minipump), bleomycin instillation with MK-0429 treatment, bleomycin instillation with vehicle oral treatment, and bleomycin instillation with Nintedanib treatment. All mice were anaesthetized with isoflurane. Bleomycin was dosed by intra-tracheal (i.t) instillation in a volume of 50 µl, at a dose of 1unit /kg body weight. After instillation, mice were kept in a heads-up position for 2–5 min before putting into cages. MK-0429 (200 mg/kg) was administered by Osmotic pump from day 5 to day 14 and Nintedanib (60 mg/kg) was administered, p.o., q.d., for 14 days. Vehicle was dosed orally at 10 am daily from the day 5 to the end of the studies and dosing volume was 10 mL/kg. For plasma PK analysis, an aliquot of 50 μL plasma was spiked into a 96-well plate, and 200 μL of acetonitrile containing internal standard were added for protein precipitation. The mixture was vortexed, centrifuged at 4000 rpm for 20 min. 50 μL of supernatant were mixed with 200 μl H2O and the final solution were injected for LC–MS/MS analysis. The methods for quantitative analysis were developed on UPLC (Waters) chromatographic system equipped with an API4000 QTrap mass spectrometer (Applied Biosystems, Concord, Ontario, Canada). Analyst 1.5 software packages (Applied Biosystems) were used to control the LC–MS/MS system and data acquisition and processing. Upon completion of the study, animals were euthanized and tissues were collected for histological assessment. Lung tissues were perfused with 10% formalin, fixed for 24 h, and then paraffin embedded. Tissue sections were stained with hematoxylin & eosin (H&E) and Masson’s trichrome, subsequently evaluated under light microscope. The severity of histopathologic changes and fibrosis in the lung were graded as described previously by pathologists[51],[52]. Following deparaffinization and rehydration, each lung tissue section was processed to identify αSMA deposition by immunohistochemistry. The primary antibodies used were αSMA antibody from Sigma. The Aperio ScanScope XT Slide Scanner (Aperio Technologies) system was used to capture whole slide digital images with a 20 × objective. Digital images were managed using Aperio Spectrum. The positive stains were identified and quantified using a macro created from a color deconvolution algorithm (Aperio Technologies). Statistical analysis was performed by using One-way ANOVA followed by Tukey’s test.
# [2] = Plasma total drug concentration in bleomycin model (LC-MS/MS); type: in vivo, mouse; conditions: 2 h after last dose, Day 19; MK-0429 200 mpk minipump, Nintedanib 60 mpk po qd; mean ± SE
# Procedure: Mice at 12 ~ 13 weeks of age were randomized to 5 groups: saline, bleomycin instillation with vehicle (osmotic minipump), bleomycin instillation with MK-0429 treatment, bleomycin instillation with vehicle oral treatment, and bleomycin instillation with Nintedanib treatment. All mice were anaesthetized with isoflurane. Bleomycin was dosed by intra-tracheal (i.t) instillation in a volume of 50 µl, at a dose of 1unit /kg body weight. After instillation, mice were kept in a heads-up position for 2–5 min before putting into cages. MK-0429 (200 mg/kg) was administered by Osmotic pump from day 5 to day 14 and Nintedanib (60 mg/kg) was administered, p.o., q.d., for 14 days. Vehicle was dosed orally at 10 am daily from the day 5 to the end of the studies and dosing volume was 10 mL/kg. For plasma PK analysis, an aliquot of 50 μL plasma was spiked into a 96-well plate, and 200 μL of acetonitrile containing internal standard were added for protein precipitation. The mixture was vortexed, centrifuged at 4000 rpm for 20 min. 50 μL of supernatant were mixed with 200 μl H2O and the final solution were injected for LC–MS/MS analysis. The methods for quantitative analysis were developed on UPLC (Waters) chromatographic system equipped with an API4000 QTrap mass spectrometer (Applied Biosystems, Concord, Ontario, Canada). […]
# [3] = test system: normal human lung fibroblasts; test: TGFβ-induced αSMA high-content imaging; type: cell-based; conditions: 10 μM, 30 min pre-treatment, TGFβ 5 ng/mL, 48 h
# Procedure: (§1) Normal human lung fibroblasts (Lonza) and Primary Human IPF Lung Parenchymal Fibroblasts (Donor2) (BioIVT, #PCR-70-0214) were incubated at 37 °C and 5% CO2. To induce fibrotic response in primary cells, a final concentration of 5 ng/ml of recombinant human TGFβ1 (BioLegend, #580702) was added to the culture media and treated for 24 ~ 48 h. Anti-TGFβ neutralizing antibody (1D11) and the isotype control mouse IgG1 were from BioXcell. SB-525334 and bleomycin were from Sigma. MK-0429 was synthesized by Merck & Co., Inc., Kenilworth, NJ, USA. CHOK1-integrin stable lines were cultured in DMEM/F12, Glutamax (Gibco #10565018), 10% FBS (Gibco 310091148), 1 × Pen/Strep (Gibco 315140-148), and 6 ug/mL Puromycin (Gibco #A1113803).
# (§2) Primary cells (passage 3–5) were grown on Cell carrier Ultra, col1 coated 96-well plates (Perkin Elmer, #6055700) at a density of 25,000 cells/well. Once the cells adhere, they were starved in serum free media for 24 h followed by addition of treatments i.e. 5 ng/mL TGFβ (Biolegend #580702) ± inhibitors. Cells were pre-treated with inhibitors for 30 min prior to the addition of TGFβ stimulation. 48hours post treatment, the cells were fixed in 4% methanol free paraformaldehyde (ThermoFisher Scientific #28908) for 20 min at room temperature and incubated with anti-alpha smooth muscle Actin antibody (Abcam #ab7817) at 1:4000 overnight at 4 °C. […]
# [4] = test system: IPF patient lung fibroblasts; test: TGFβ-induced αSMA high-content imaging; type: cell-based, human; conditions: TGFβ 5 ng/mL, 48 h, read-out: IC50 TGFβ-mediated αSMA induction
# Procedure: as §1, §2
# [5] = treatment from day 5 for 14 days, MK-0429 200 mpk osmotic minipump, vs BLM-vehicle
Mean plasma total drug concentration [2],SMILES,"TIMP-1 content in BALF ([1]; 14 days treatment, MK-0429 200 mpk minipump)","Modified Ashcroft score of mouse lung [1, 5]","Total inflammation area in mouse lungs [1, 5]","αSMA immunohistochemistry in lung [1, 5]",Body weight vs bleomycin group ([1]; MK-0429 200 mpk minipump),αSMA intensity and percentage of stimulated cells following TGFβ treatment [3],IC50 [4] [nM]
656.1 ng/mL and 656 ± 229 ng/mL,COC(=O)c1ccc2c(c1)NC(=O)/C2=C(\Nc1ccc(N(C)C(=O)CN2CCN(C)CC2)cc1)c1ccccc1 [Nintedanib],significantly decreased,significantly improved,decreased,significantly decreased,no significant body weight difference,,
,Cc1cccc(-c2[nH]c(C(C)(C)C)nc2-c2ccc3nccnc3c2)n1 [SB-525334],,,,,,significantly reduced,56 ± 22
